# Laboratory results from patent publication US4030886A, “Saturation analysis” (The Radiochemical Centre Limited, priority 1973, dated 1977).
# Values joined by “and” are separate entries in the source; they are usually repeats but may differ in a detail not shown here. Identical values can stand only once. Like-named read-outs stand apart in the source and are kept apart here.
# Assays:
# [1] = system: antiserum raised in rabbit against estriol-6-CMO-BSA; details: 4 ng label, antiserum 1:200
# Description: Into each assay tube was dispensed 0.1M phosphate buffer containing 5% human serum (pH 7.0; 200μl), antiserum raised in rabbit against estriol-6-CMO-BSA and diluted 1:200 in 0.1M Phosphate buffer containing 5% human serum (200μl), and selenomethionine-Se75 conjugate of estriol-6-CMO (4 ng; 400 mCi/m mol). Standard amounts of estriol (1.25 ng, 10 ng and 20 ng) in human serum were added to each assay tube; to one tube was added buffer instead of antiserum as a blank. The contents of each tube were mixed and incubated at room temperature for one hour. Ammonium sulphate solution was then added (5.4g (NH4)2 SO4 = 10 ml H2 O; 500 μl) and after mixing, the solutions were centrifuged. The supernatant was removed and the precipitate counted in a gamma counter. The percentage of total counts bound to the precipitate was calculated.
# [2] = target: T1, transcortin (charcoal treated rabbit serum) (Oryctolagus cuniculus, UniProt P23775); assay: Assay for cortisol using Se-75 labelled bis-2,2'-(21-acetoxy-1-dehydrocortisol)-diselenide (competitive protein binding, Sephadex G25 separation); details: 2.3 ng label, 1 ml supernatant
# T1 construct: charcoal treated rabbit serum; from tissue; host or cells: rabbit serum, charcoal treated
# T1 sequence (P23775 1-383): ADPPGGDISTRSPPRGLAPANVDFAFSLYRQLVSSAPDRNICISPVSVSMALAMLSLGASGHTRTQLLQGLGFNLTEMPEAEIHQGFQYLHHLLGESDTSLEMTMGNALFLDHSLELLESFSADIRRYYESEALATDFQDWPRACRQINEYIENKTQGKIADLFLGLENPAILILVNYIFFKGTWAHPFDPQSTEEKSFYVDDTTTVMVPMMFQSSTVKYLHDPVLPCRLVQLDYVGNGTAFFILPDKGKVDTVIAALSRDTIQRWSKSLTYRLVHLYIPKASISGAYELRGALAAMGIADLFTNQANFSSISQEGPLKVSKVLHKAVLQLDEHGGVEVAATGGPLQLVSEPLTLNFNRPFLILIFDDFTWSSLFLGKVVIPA
# Description: (§1) Into each glass assay tube was dispensed glycine buffer containing 1% sodium azide (pH 9.0; 5.5 ml), charcoal treated rabbit serum (50 μl), bis-2,2'-(21-acetoxy-1-dehydrocortisol)-diselenide-Se 75 (2.3 ng, sp. activity ca 6 Ci/m atom), and Sephadex G25 (1 g). […] The tubes were capped and rotated at room temperature for 1 hour using a blood cell suspension mixer. After this time an aliquot (1 ml) of the supernatant liquid was withdrawn from each tube and counted for 300 seconds using an NE8311 gamma counter.
# [3] = target: T1, transcortin (charcoal treated rabbit serum); assay: Assay for cortisol - the use of β-mercaptoethanol in situ, tubes stored before use; format: binding
# Description: as §1
# Bis-2,2'-(21-acetoxy-1-dehydrocortisol)-diselenide-Se75 (100ng) in ethanol (10 ul) was added with stirring to a solution of β-mercaptoethanol (20 μl) in 0.05M phosphate buffer (pH 7.4; 1 ml). The mixture was left at room temperature for 20 minutes and then was added to a solution of 0.05M phosphate buffer (pH 7.4; 480 ml) containing sodium azide (1%) and charcoal treated rabbit serum (2 ml). After thorough mixing this solution was dispensed (in 6 ml aliquots) into glass assay tubes each containing Sephadex G25 (1 g). The tubes were capped and stored at room temperature until required, when the assay was then carried out as described above.
# [4] = target: T2, Transcortin from rabbit serum (Oryctolagus cuniculus, UniProt P23775); assay: CPB assay for cortisol using Se-75 labelled bis-2,2'-(1-dehydrocorticosterone)-diselenide; format: binding
# T2 construct: Transcortin from rabbit serum; from tissue; host or cells: rabbit serum
# T2 sequence (P23775 1-383): T1 sequence (P23775 1-383)
# Description: as §1
# Se-75 labelled bis-2,2'-(1-dehydrocorticosterone)-diselenide was prepared by base hydrolysis of Se75-labelled bis-2,2'-(21-acetoxy-1-dehydrocorticosterone) diselenide which is described in our U.S. Ser. No. 426,695.
# Using this radiolabelled material an assay for cortisol was set up as described in Example 1. Transcortin from rabbit serum was used as the source of binding protein and Sephadex G25 was used to separate protein free and bound material.
# Typical results obtained using standard solutions of unlabelled cortisol to displace the labelled Δ^1 -corticosterone diselenide are: […]
# [5] = system: Antisera raised in rabbits to testosterone 3-carboxymethyloxime-BSA; assay: Radioimmunoassay for testosterone, antiserum dilution curve; format: binding, rabbit; details: for % Bound: 25pg label per assay tube
# Description: Antisera were raised in rabbits to testosterone 3-carboxymethyloxime-BSA.
# SE75 labelled 2-methylseleno-1-dehydrotestosterone (specific activity 15-20 Ci/mmol) was prepared by base catalysed hydrolysis of 2-methylseleno 1-dehydrotestosterone acetate which is described in our prior patent specification.
# Antiserum dilution curves were set up in the usual way using antiserum and labelled testosterone as described above.
# Typical figures for the antiserum dilution curves when 25pg labelled testosterone was used per assay tube are: […]
# [6] = system: antiserum raised in rabbits against estriol-6-CMO-BSA; assay: Assay for estriol using 2-(methylseleno)-ethylamine-Se75 conjugate of estriol-6CMO; format: binding, rabbit; details: 300 pg label, antiserum 1:200
# Description: Into each assay tube was dispensed 0.1M phosphate buffer containing 5% human serum (pH 7.0; 200 μl), antiserum raised in rabbits against estriol-6-CMO-BSA and diluted 1 : 200 in 0.1M phosphate buffer containing 5% human serum (200 μl), and 2-(methylseleno)-Ethylamine-Se 75 conjugate of estriol-6-CMO (300 pg; 18 Ci/m mol).
compound,measurement,setting,value
selenomethionine-Se75 conjugate of estriol-6-carboxymethyloxime,% of total counts bound minus blank,[1]; 0 ng estriol added,59.1%
same,% of total counts bound minus blank,[1]; 1.25 ng estriol added,55.3%
same,% of total counts bound minus blank,[1]; 10 ng estriol added,44.3%
same,% of total counts bound minus blank,[1]; 20 ng estriol added,39.0%
"CC(=O)OCC(=O)[C@@]1(O)CC[C@H]2[C@@H]3CCC4=CC(=O)C([75Se][75Se]C5=C[C@@]6(C)C(=CC5=O)CC[C@@H]5[C@@H]6[C@@H](O)C[C@@]6(C)[C@H]5CC[C@]6(O)C(=O)COC(C)=O)=C[C@]4(C)[C@H]3[C@@H](O)C[C@@]21C [bis-2,2'-(21-acetoxy-1-dehydrocortisol)-diselenide-Se 75]",Counts - Rkgd in 300 sec,[2]; cortisol standard 0 μg/100 ml,34672 and 33573
same,Counts - Rkgd in 300 sec,[2]; cortisol standard 2 μg/100 ml,31116 and 32296
same,Counts - Rkgd in 300 sec,[2]; cortisol standard 4 μg/100 ml,31129 and 31389
same,Counts - Rkgd in 300 sec,[2]; cortisol standard 8 μg/100 ml,29987 and 30954
same,Counts - Rkgd in 300 sec,[2]; cortisol standard 16 μg/100 ml,29141 and 29356
same,Counts - Rkgd in 300 sec,[2]; cortisol standard 32 μg/100 ml,26842 and 25739
same,Counts - Rkgd in 300 sec,[2]; cortisol standard 64 μg/100 ml,23746 and 25895
same,Counts per 100 seconds (corrected for background),"[3]; cortisol standard 2 μg/100 ml, storage time 1 day",12814 and 13112
same,Counts per 100 seconds (corrected for background),"[3]; cortisol standard 2 μg/100 ml, storage time 28 days",13007 and 12356
same,Counts per 100 seconds (corrected for background),"[3]; cortisol standard 4 μg/100 ml, storage time 1 day",13012
same,Counts per 100 seconds (corrected for background),"[3]; cortisol standard 4 μg/100 ml, storage time 28 days",11884
same,Counts per 100 seconds (corrected for background),"[3]; cortisol standard 8 μg/100 ml, storage time 1 day",12754 and 12709
same,Counts per 100 seconds (corrected for background),"[3]; cortisol standard 8 μg/100 ml, storage time 28 days",11486 and 11624
same,Counts per 100 seconds (corrected for background),"[3]; cortisol standard 16 μg/100 ml, storage time 1 day",11980 and 11825
same,Counts per 100 seconds (corrected for background),"[3]; cortisol standard 16 μg/100 ml, storage time 28 days",10930 and 10467
same,Counts per 100 seconds (corrected for background),"[3]; cortisol standard 32 μg/100 ml, storage time 1 day",10988 and 10876
same,Counts per 100 seconds (corrected for background),"[3]; cortisol standard 32 μg/100 ml, storage time 28 days",10078 and 10365
same,Counts per 100 seconds (corrected for background),"[3]; cortisol standard 64 μg/100 ml, storage time 1 day",9636
same,Counts per 100 seconds (corrected for background),"[3]; cortisol standard 64 μg/100 ml, storage time 28 days",9967
"C[C@]12C[C@H](O)[C@H]3[C@@H](CCC4=CC(=O)C([75Se][75Se]C5=C[C@@]6(C)C(=CC5=O)CC[C@@H]5[C@@H]6[C@@H](O)C[C@]6(C)[C@@H](C(=O)CO)CC[C@@H]56)=C[C@@]43C)[C@@H]1CC[C@@H]2C(=O)CO [bis-2,2'-(1-dehydrocorticosterone)-diselenide]",Counts - Bkgd,[4]; cortisol standard 2 μg/100 ml,24700
same,Counts - Bkgd,[4]; cortisol standard 4 μg/100 ml,24100
same,Counts - Bkgd,[4]; cortisol standard 8 μg/100 ml,22800
same,Counts - Bkgd,[4]; cortisol standard 16 μg/100 ml,21800
same,Counts - Bkgd,[4]; cortisol standard 32 μg/100 ml,21200
same,Counts - Bkgd,[4]; cortisol standard 64 μg/100 ml,20700
C[75Se]C1=C[C@@]2(C)C(=CC1=O)CC[C@H]1[C@@H]3CC[C@H](O)[C@@]3(C)CC[C@@H]12 [2-methylseleno-1-dehydrotestosterone],antiserum dilution curves compared with tritiated testosterone as label,[5],identical to those obtained when tritiated testosterone was used as label
same,% Bound,[5]; antiserum dilution 1/10^2,85%
same,% Bound,[5]; antiserum dilution 1/10^3,80%
same,% Bound,[5]; antiserum dilution 1/10^4,45%
same,% Bound,[5]; antiserum dilution 1/10^5,18%
same,% Bound,[5]; antiserum dilution 1/10^6,13%
C[75Se]CCNC(=O)CON=C1C[C@@H]2[C@H](CC[C@]3(C)[C@@H](O)[C@H](O)C[C@@H]23)c2ccc(O)cc21 [2-(methylseleno)-ethylamine - Se 75 conjugate of estriol-6-carboxymethyloxime],% of total counts bound minus blanks,[6]; 0 ng estriol added,45.9%
same,% of total counts bound minus blanks,[6]; 1.5 ng estriol added,37.5%
same,% of total counts bound minus blanks,[6]; 3.1 ng estriol added,35.6%
same,% of total counts bound minus blanks,[6]; 6.3 ng estriol added,32.0%
same,% of total counts bound minus blanks,[6]; 12.5 ng estriol added,29.2%
same,% of total counts bound minus blanks,[6]; 25 ng estriol added,24.7%
